Measurements taken from patent publication US7994185B2, “Benzene sulfonamide thiazole and oxazole compounds” (Glaxo Smith Kline LLC, priority 2008, dated 2011).
Like-named read-outs stand apart in the source and are kept apart here. Blank lines part the entries; values can stand above or below the compound they belong to.

Columns and labels:
[1] = biological target: T1, BRAFV600E full-length (amino acids 2-766) (Homo sapiens, UniProt P15056, V600E); test: B-Raf Accelerated MEK ATPase assay (BRAMA); assay type: biochemical; conditions: categorized
T1 construct: His6-tagged BRAFV600E full-length (amino acids 2-766); His6; made in house; host or cells: baculovirus expression system (insect cells)
Summary of the method: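 Coupled-enzyme readout: ADP generated by MEK-mediated ATP hydrolysis, uncoupled from ERK phosphorylation, is linked to NADH oxidation through pyruvate kinase and lactate dehydrogenase.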

[2] = test system: Human melanoma cancer cells (SK-MEL-28); test: Cell growth inhibition assay (CellTiter-Glo), SK-MEL-28; assay type: cell-based
[3] = test system: Human colon tumor cells (Colo205); test: Cell growth inhibition assay (CellTiter-Glo), Colo205; assay type: cell-based
Summary of the method: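 Colo205 (and SK-MEL-28) cells in RPMI with 10% FBS were exposed to 10-point 1:3 serial dilutions of compound at 0.2% final DMSO for 3 days at 37 °C. Total ATP, a surrogate for cell number, was read by CellTiter-Glo luminescence, with % growth inhibition relative to DMSO-treated wells.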

[4] = B-Raf Activity, Table 1a, highest pIC50 for the one or more runs
[5] = B-Raf pIC50, Table 1b, later runs, average pIC50 for the one or more runs
[6] = SK-MEL-28, 72 h, Table 3a, 3 days incubation, read-out: Activity in SK-MEL-28 Tumor Cells
[7] = SK-MEL-28, Table 3b, later runs, average for the one or more runs, categorized, read-out: IC50 for SK-MEL-28
[8] = COLO 205, 72 h, Table 2a, 3 days incubation, read-out: Activity in Colo205 Tumor Cells
[9] = COLO 205, Table 2b, later runs, average for the one or more runs, categorized, read-out: IC50 for Colo205
[10] = Table 1b, later runs, average pIC50 for the one or more runs, read-out: B-Raf pIC50 (converted)

T1 sequence (P15056 2-766 V600E): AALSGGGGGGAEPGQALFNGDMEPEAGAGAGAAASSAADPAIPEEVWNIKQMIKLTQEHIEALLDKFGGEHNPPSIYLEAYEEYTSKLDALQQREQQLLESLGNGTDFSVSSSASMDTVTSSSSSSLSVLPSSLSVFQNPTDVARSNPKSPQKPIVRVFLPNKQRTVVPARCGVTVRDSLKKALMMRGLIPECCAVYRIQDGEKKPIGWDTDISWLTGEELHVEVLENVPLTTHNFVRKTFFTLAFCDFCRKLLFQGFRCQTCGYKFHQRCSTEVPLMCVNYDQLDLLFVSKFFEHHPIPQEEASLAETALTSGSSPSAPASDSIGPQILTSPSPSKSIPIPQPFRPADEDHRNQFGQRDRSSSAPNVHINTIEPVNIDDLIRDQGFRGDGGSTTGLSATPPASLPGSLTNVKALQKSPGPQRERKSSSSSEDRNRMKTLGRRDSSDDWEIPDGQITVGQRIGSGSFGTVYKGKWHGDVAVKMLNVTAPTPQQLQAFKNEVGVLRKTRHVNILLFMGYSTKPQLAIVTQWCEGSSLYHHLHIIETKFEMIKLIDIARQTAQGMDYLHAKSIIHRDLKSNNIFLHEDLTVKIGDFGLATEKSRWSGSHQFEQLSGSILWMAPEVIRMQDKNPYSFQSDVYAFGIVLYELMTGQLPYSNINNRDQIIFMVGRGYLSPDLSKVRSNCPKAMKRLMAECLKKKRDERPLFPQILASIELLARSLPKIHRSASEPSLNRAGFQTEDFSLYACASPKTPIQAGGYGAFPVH

SMILES: CC(C)c1nc(-c2ccc(F)c(NS(=O)(=O)c3c(F)cccc3F)c2)c(-c2ccnc(NCCCN3CCCC3=O)n2)s1 [Example 95, 2,6-Difluoro-N-{2-fluoro-5-[2-(1-methylethyl)-5-(2-{[3-(2-oxo-1-pyrrolidinyl)propyl]amino}-4-pyrimidinyl)-1,3-thiazol-4-yl]phenyl}benzenesulfonamide]
IC50 [1, 4]: < 100 nM
IC50 [1, 5]: 31.6 to 1000 nM
IC50 [2, 6]: 100 to 1000 nM
IC50 [2, 7]: 100 to 1000 nM
IC50 [3, 8]: 100 to 1000 nM
IC50 [3, 9]: 100 to 1000 nM

SMILES: O=S(=O)(Nc1cccc(-c2nc(N3CCOCC3)sc2-c2ccncn2)c1Cl)c1c(F)cccc1F [Example 27, N-{2-Chloro-3-[2-(4-morpholinyl)-5-(4-pyrimidinyl)-1,3-thiazol-4-yl]phenyl}-2,6-difluorobenzenesulfonamide]
IC50 [1, 4]: < 100 nM
IC50 [1, 10]: 3.16 to 31.6 nM
IC50 [2, 6]: 100 to 1000 nM
IC50 [2, 7]: 100 to 1000 nM
IC50 [3, 8]: 100 to 1000 nM
IC50 [3, 9]: 100 to 1000 nM

SMILES: CC(C)c1nc(-c2ccc(F)c(NS(=O)(=O)c3cc(F)ccc3F)c2)c(-c2ccnc(NCCCS(C)(=O)=O)n2)s1 [Example 204]
IC50 [1, 4]: < 100 nM
IC50 [1, 10]: 3.16 to 31.6 nM
IC50 [2, 6]: < 100 nM
IC50 [2, 7]: < 100 nM
IC50 [3, 8]: < 100 nM
IC50 [3, 9]: < 100 nM

SMILES: CC(=O)NCCNc1nccc(-c2sc(C(C)C)nc2-c2ccc(F)c(NS(=O)(=O)c3cc(F)ccc3F)c2)n1 [Example 186]
IC50 [1, 4]: < 100 nM
IC50 [1, 10]: 3.16 to 31.6 nM
IC50 [2, 6]: 100 to 1000 nM
IC50 [2, 7]: 100 to 1000 nM
IC50 [3, 8]: 100 to 1000 nM
IC50 [3, 9]: 100 to 1000 nM

SMILES: CC(C)c1nc(-c2cccc(NS(=O)(=O)c3ccco3)c2)c(-c2ccnc(NCCS(C)(=O)=O)n2)s1 [Example 30, N-{3-[2-(1-Methylethyl)-5-(2-{[2-(methylsulfonyl)ethyl]amino}-4-pyrimidinyl)-1,3-thiazol-4-yl]phenyl}-2-furansulfonamide]
IC50 [1, 4]: < 100 nM
IC50 [1, 5]: ≤ 3.16 nM
IC50 [2, 6]: < 100 nM
IC50 [2, 7]: < 100 nM
IC50 [3, 8]: < 100 nM
IC50 [3, 9]: < 100 nM

SMILES: CC(C)c1nc(-c2ccc(F)c(NS(=O)(=O)c3ccco3)c2)c(-c2ccnc(NCCCS(C)(=O)=O)n2)s1 [Example 148]
IC50 [1, 4]: < 100 nM
IC50 [1, 10]: 3.16 to 31.6 nM
IC50 [2, 6]: > 1000 nM
IC50 [2, 7]: 1000 to 10000 nM
IC50 [3, 8]: > 1000 nM
IC50 [3, 9]: 1000 to 10000 nM

SMILES: CC(C)c1nc(-c2ccc(F)c(NS(=O)(=O)c3cc(F)ccc3F)c2)c(-c2ccnc(NC3CCN(CCS(C)(=O)=O)CC3)n2)s1 [Example 126]
IC50 [1, 4]: < 100 nM
IC50 [1, 5]: 31.6 to 1000 nM
IC50 [2, 6]: 100 to 1000 nM
IC50 [2, 7]: 100 to 1000 nM
IC50 [3, 8]: 100 to 1000 nM
IC50 [3, 9]: 100 to 1000 nM

SMILES: CC(C)(C)OC(=O)NCCNc1nccc(-c2sc(C(C)(C)C)nc2-c2cccc(NS(=O)(=O)c3cc(F)ccc3F)c2F)n1 [Example 198]
IC50 [1, 4]: < 100 nM
IC50 [1, 5]: ≤ 3.16 nM
IC50 [2, 6]: 100 to 1000 nM
IC50 [2, 7]: 100 to 1000 nM
IC50 [3, 8]: 100 to 1000 nM
IC50 [3, 9]: 100 to 1000 nM

SMILES: CC(C)CNc1nccc(-c2sc(C(C)C)nc2-c2cccc(NS(=O)(=O)c3c(F)cccc3F)c2F)n1 [Example 176]
IC50 [1, 4]: < 100 nM
IC50 [1, 5]: ≤ 3.16 nM
IC50 [2, 6]: < 100 nM
IC50 [2, 7]: < 100 nM
IC50 [3, 8]: < 100 nM
IC50 [3, 9]: < 100 nM

IC50 [1, 10]: 3.16 to 31.6 nM
IC50 [2, 7]: < 100 nM
IC50 [3, 9]: < 100 nM
SMILES: Cc1nccc(-c2sc(N3CCS(=O)(=O)CC3)nc2-c2cccc(NS(=O)(=O)c3cc(F)ccc3F)c2F)n1 [Example 253, N-{3-[2-(1,1-dioxido-4-thiomorpholinyl)-5-(2-methyl-4-pyrimidinyl)-1,3-thiazol-4-yl]-2-fluorophenyl}-2,5-difluorobenzenesulfonamide]

SMILES: Nc1nccc(-c2oc(N3CCCC3)nc2-c2cccc(NS(=O)(=O)c3c(F)cccc3F)c2)n1 [Example 110, N-{3-[5-(2-Amino-4-pyrimidinyl)-2-(1-pyrrolidinyl)-1,3-oxazol-4-yl]phenyl}-2,6-difluorobenzenesulfonamide]
IC50 [1, 4]: 100 to 1000 nM
IC50 [1, 5]: 31.6 to 1000 nM
IC50 [2, 7]: 1000 to 10000 nM
IC50 [3, 9]: 1000 to 10000 nM

IC50 [1, 10]: 3.16 to 31.6 nM
IC50 [2, 7]: < 100 nM
IC50 [3, 9]: < 100 nM
SMILES: CC(C)(O)CCc1nccc(-c2sc(N3CCOCC3)nc2-c2cccc(NS(=O)(=O)c3cc(F)ccc3F)c2F)n1 [Example 248, 2,5-difluoro-N-{2-fluoro-3-[5-[2-(3-hydroxy-3-methylbutyl)-4-pyrimidinyl]-2-(4-morpholinyl)-1,3-thiazol-4-yl]phenyl}benzenesulfonamide]
